No end group written: not given here. *: point of attachment. FITC = O=C1OC2(c3ccc(O)cc3Oc3cc(O)ccc32)c2ccc(NC(=S)*)cc21
Tests used:
KLC2^TPR-myc = biological target: T1, KLC2^TPR-myc (Mus musculus, UniProt O88448); test: Fluorescence anisotropy-based binding competition against FITC-LFP motif peptide; design: species or system murine; settings: FITC-LFP peptide 300 nM, KLC2^TPR-myc 21 μM, Trp-JIP3^LZ two independent experiments, CSTN-WD1 one experiment
T1 construct: comprised murine KLC2 residues 191-480; His6-SUMO (N, cleaved yes); made in house; host or cells: E. coli BL21(DE3) Rosetta
From the text: Kinesin-1 activation by JIP3 requires JIP3^LZ binding to KLC^TPR ([Watt et al., 2015]). How does JIP3^LZ binding to the KLC^TPR relieve KLC regulation of the kinesin-1 molecule? Tryptophan-acidic cargoes activate kinesin-1 by releasing the KLC LFP motif from the KLC^TPR ([Yip et al., 2016]). […] We therefore wondered whether JIP3^LZ binding to the KLC2^TPR allosterically regulates interactions between KLC2^TPR and the LFP motif. We investigated this using an in vitro, fluorescence anisotropy-based binding competition assay with purified proteins and peptides ([Yip et al., 2016]). […] Thus, JIP3 activates kinesin-1 by a different mechanism to tryptophan-acidic cargoes.
The binding affinity between the FITC-labelled LFP-motif peptide and the KLC2^TPR-myc was measured essentially as described previously ([Yip et al., 2016]). FITC-labelled LFP motif peptide (300 nM) was incubated with 2-fold dilutions of KLC2^TPR-myc in assay buffer (0.1 M NaCl, 25 mM HEPES, 5 mM MgCl2, 1 mM TCEP, final pH 7.5) in triplicate in 384-well plates, for 1 hour at room temperature. Fluorescence measurements were recorded on a TecanSpark plate reader at excitation and emission wavelengths of 488 nm and 535 nm respectively. Fluorescence anisotropy values were calculated at each KLC2^TPR-myc concentration and the data were fitted with a fixed-slope dose response curve in Prism (GraphPad). […]

wild-type KLC2^TPR-myc = test: ITC of Trp-JIP3^LZ or FITC-CSTN-WD2 peptide into wild-type KLC2^TPR-myc; type: binding, murine; settings: n = 2
Procedure: (§1) The Trp-JIP3^LZ protein used for CD and ITC experiments was prepared as described above for the JIP3^LZ, with the following modifications. Following 3C cleavage, contaminating GST3C was removed by incubation of the eluate with fresh, pre-equilibrated glutathione sepharose 4B resin for 2 hours at room temperature. The Trp-JIP3^LZ was then further purified by size exclusion chromatography using a Superdex 75 16/600 column equilibrated in 100 mM NaCl, 25 mM HEPES, 1 mM TCEP (final pH 7.5). Wild-type/mutant KLC2^TPR-myc samples used for CD and ITC experiments were prepared as described above the KLC2^TPR used in crystallographic studies. The Trp-JIP3^LZ and KLC2^TPR-myc samples used in the fluorescence anisotropy-based binding competition assays were prepared as for those used in the CD and ITC studies, but the final size-exclusion step was performed in 100 mM NaCl, 25 mM HEPES, 5mM MgCl2, 1 mM TCEP (final pH 7.5).
To study binding of the Trp-JIP3^LZ and FITC-CSTN-WD2 peptide to wild-type and mutant KLC2^TPR-myc, the recombinant proteins were prepared by size exclusion chromatography in 0.1 M NaCl, 25 mM HEPES, 1 mM TCEP, final pH 7.5. Wild-type or mutant KLC2^TPR-myc at 44-50 μM were placed in the cell. The Trp-JIP3^LZ was used as the titrant at dimer concentrations of 297-330 μM. The FITC-CSTN-WD2 peptide was used as the titrant at a concentration of 380 μM. The peptide concentration was determined by measuring the absorbance at 483 nm and using a molar extinction coefficient of 68,000 M^-1cm^-1. ITC experiments were performed as described above with injections spaced 120-150 s apart. Thermograms were integrated and corrected for heats of dilution using NITPIC (http://biophysics.swmed.edu/MBR/software.html). The resulting isotherms were analysed in SEDPHAT. Data for the Trp-JIP3^LZ as titrant were fitted with the A + B + B → AB + B → ABB model, whilst binding of the FITC-CSTN-WD2 peptide was analysed using the A + B → AB model. Between 2 and 3 experiments were performed for each titrand/titrant pair. For each titrand/titrant pair, the isotherms from the experiments were globally fitted with the relevant model. […] During fitting, the FITC-CSTN-WD2 peptide concentrations consistently refined to values around 30% greater than the measured value of 380 μM, with Napp values around 0.7 (Table S2). We ascribe this to an under-quantification of the FITC-CSTN-WD2 peptide concentration since the peptide contains a single tryptophan-acidic motif, and the concentration values for experiments with Trp-JIP3^LZ as ligand refined close to their measured values.

[1] = system: KLC2^TPR-myc Tyr^208Ala (Y208A); test: ITC of FITC-CSTN-WD2 peptide into Y208A KLC2^TPR-myc; type: binding, murine; settings: n = 2
From the text: (§2) The KLC2^TPR construct used in this work comprised murine KLC2 residues 191-480, which is similar to those used in previous studies ([Nguyen et al., 2017], [Zhu et al., 2012]) but with a slightly longer N-terminal region to include residues 191-194, which are very highly conserved in Bilaterian KLCs. To construct the pMW-His6-SUMO-KLC2^TPR vector, the sequence encoding KLC2^TPR (residues 191-480) was amplified by PCR from a murine template ([Dodding et al., 2011]) and cloned into the NotI/EcoRI sites of pMW his-SUMO. The His6-SUMO- KLC2^TPR-myc vectors were constructed likewise, but using a reverse primer sequence encoding the KLC^TPR C-terminal region up to residue 480, a BglII site, and an in-frame myc-tag sequence, thus fusing the amino acid sequence […] to the KLC2^TPR C-terminus. KLC2^TPR-myc mutants (Thr^200Asp, Tyr^208Ala, Gln^223Lys and Arg^312Glu) were generated by overlap PCR.
as §1, with “Wild-type/mutant KLC2^TPR-myc samples used for CD and ITC experiments were prepared as described above the KLC2^TPR used in crystallographic studies.” left out
(§3) To study binding of the Trp-JIP3^LZ and FITC-CSTN-WD2 peptide to wild-type and mutant KLC2^TPR-myc, the recombinant proteins were prepared by size exclusion chromatography in 0.1 M NaCl, 25 mM HEPES, 1 mM TCEP, final pH 7.5. […] The peptide concentration was determined by measuring the absorbance at 483 nm and using a molar extinction coefficient of 68,000 M^-1cm^-1. […] The resulting isotherms were analysed in SEDPHAT. Data for the Trp-JIP3^LZ as titrant were fitted with the A + B + B → AB + B → ABB model, whilst binding of the FITC-CSTN-WD2 peptide was analysed using the A + B → AB model. […] During fitting, the FITC-CSTN-WD2 peptide concentrations consistently refined to values around 30% greater than the measured value of 380 μM, with Napp values around 0.7 (Table S2). We ascribe this to an under-quantification of the FITC-CSTN-WD2 peptide concentration since the peptide contains a single tryptophan-acidic motif, and the concentration values for experiments with Trp-JIP3^LZ as ligand refined close to their measured values.

[2] = system: KLC2^TPR-myc Thr^200Asp (T200D); test: ITC of FITC-CSTN-WD2 peptide into T200D KLC2^TPR-myc; type: binding, murine; settings: 25°C, 0.1 M NaCl, n = 3
From the text: as §2
The Trp-JIP3^LZ protein used for CD and ITC experiments was prepared as described above for the JIP3^LZ, with the following modifications. […] The Trp-JIP3^LZ and KLC2^TPR-myc samples used in the fluorescence anisotropy-based binding competition assays were prepared as for those used in the CD and ITC studies, but the final size-exclusion step was performed in 100 mM NaCl, 25 mM HEPES, 5mM MgCl2, 1 mM TCEP (final pH 7.5).
as §3, with “We ascribe this to an under-quantification of the FITC-CSTN-WD2 peptide concentration since the peptide contains a single tryptophan-acidic motif, and the concentration values for experiments with Trp-JIP3^LZ as ligand refined close to their measured values.” left out

KLC2 L220Y mutant = test: ITC of FITC-CSTN-WD2 peptide into L220Y KLC2^TPR-myc; type: binding, murine; settings: 25°C, 0.1 M NaCl, n = 2
Procedure: as §1
as §3, with “7.5. Wild-type or mutant KLC2^TPR-myc at 44-50 μM were placed in the cell. The Trp-JIP3^LZ was used as the titrant at dimer concentrations of 297-330 μM.” for “7.5.”

[3] = system: wild-type and mutant KLC2^TPR-myc; test: ITC with wild-type and/or TPR1-mutant KLC2^TPR-myc (collective statements); type: binding, murine
Procedure: as §1
To study binding of the Trp-JIP3^LZ and FITC-CSTN-WD2 peptide to wild-type and mutant KLC2^TPR-myc, the recombinant proteins were prepared by size exclusion chromatography in 0.1 M NaCl, 25 mM HEPES, 1 mM TCEP, final pH 7.5. […] The peptide concentration was determined by measuring the absorbance at 483 nm and using a molar extinction coefficient of 68,000 M^-1cm^-1. […] The resulting isotherms were analysed in SEDPHAT. […]

[4] = FITC-CSTN-WD2, 25°C, 0.1 M NaCl, pH 7.5, global fit
[5] = 25°C, 0.1 M NaCl, pH 7.5, global fit
[6] = 25 mM HEPES, 1 mM TCEP, pH 7.5, A + B → AB model, global fit

T1 sequence (O88448 191-480): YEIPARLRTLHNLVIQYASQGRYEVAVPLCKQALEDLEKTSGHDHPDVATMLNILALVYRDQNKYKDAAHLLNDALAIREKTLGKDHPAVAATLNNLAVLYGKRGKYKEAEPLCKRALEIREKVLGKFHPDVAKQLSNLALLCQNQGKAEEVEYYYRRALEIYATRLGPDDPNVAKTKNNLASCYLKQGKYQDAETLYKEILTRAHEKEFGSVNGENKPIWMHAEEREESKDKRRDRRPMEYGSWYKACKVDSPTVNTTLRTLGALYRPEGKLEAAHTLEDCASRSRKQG

Row | Napp, apparent binding stoichiometry (wild-type KLC2^TPR-myc; FITC-CSTN-WD2, mean ± standard deviation) | Napp, apparent binding stoichiometry ([1]; mean ± standard deviation) | effect of the three TPR1 mutations on binding ([3]; all three mutations in TPR1 of KLC2^TPR-myc, ITC) | Substance | effect on binding of KLC2^TPR-myc to FITC-labeled LFP motif peptide (KLC2^TPR-myc) | K, macroscopic association constant (wild-type KLC2^TPR-myc; FITC-CSTN-WD2, 25°C, 0.1 M NaCl, 25 mM HEPES, 1 mM TCEP, pH 7.5, A + B → AB model, global fit) [µM⁻¹] | -TΔS (wild-type KLC2^TPR-myc; [4]) [kcal/mol] | ΔH (wild-type KLC2^TPR-myc; [4]) [kcal/mol] | K, macroscopic association constant ([1]; 25°C, 0.1 M NaCl, 25 mM HEPES, 1 mM TCEP, pH 7.5, A + B → AB model, global fit) [µM⁻¹] | -TΔS [1, 5] [kcal/mol] | ΔH [1, 5] [kcal/mol] | K, macroscopic association constant [2, 6] [µM⁻¹] | -TΔS ([2]; pH 7.5, global fit) [kcal/mol] | ΔH ([2]; pH 7.5, global fit) [kcal/mol] | K, macroscopic association constant (KLC2 L220Y mutant; [6]) [µM⁻¹] | -TΔS (KLC2 L220Y mutant; pH 7.5, global fit) [kcal/mol] | ΔH (KLC2 L220Y mutant; pH 7.5, global fit) [kcal/mol] | Napp values ([3]; FITC-CSTN-WD2, wild-type and mutant KLC2^TPR-myc, ascribed to under-quantification of the peptide concentration)
1 | – | – | – | Ac-GKENEMDWDDSALTITVN [CSTN-WD1] | blocked binding | – | – | – | – | – | – | – | – | – | – | – | – | –
2 | 0.67 ± 0.08 | 0.67 ± 0.07 | only minor effects on binding | {FITC}-TRQLEWDDSTL-OH [FITC-CSTN-WD2, FITC-labeled tryptophan-acidic calsyntenin-1 peptide] | – | 0.820 | -3.762 | -4.305 | 0.541 | -4.463 | -3.358 | 0.845 | -3.911 | -4.174 | 0.739 | -4.104 | -3.902 | around 0.7
